In patent publication US12486253B2, “Therapeutics for the degradation of mutant BRAF” (C4 THERAPEUTICS, INC., priority 2021, dated 2025):
“Also recorded” adds a separate entry of the source.

Experiments:
A375 cells [1] = assay: Cellular confluence of A375 cells by live cell imaging; format: cell-based; details: end of the 7-day experiment
phospho-ERK (T202/Y204) [2] = assay: HTRF phospho-ERK (T202/Y204) inhibition assay in A375 cells; format: cell-based; details: Homo sapiens, A-375, 24 hrs, mean of at least n = 3, read-out: pERK IC50
Procedure: (§1) A375 (harboring BRAF homozygous V600E mutation) were purchased from ATCC. DMEM Medium without phenol red and supplemented with L-glutamine was purchased from Corning (Corning, NY, USA). Advanced phospho-ERK (Thr202/Tyr204) HTRF assay kits were purchased from Cisbio (Bedford, MA, USA). Cell culture flasks and 384-well microplates were acquired from VWR (Radnor, PA, USA) or Corning (Corning, NY, USA).
(§2) Degradation of activated phospho-ERK (T202/Y204) protein was determined based on quantification of FRET signal using the Advanced phospho-ERK (T202/Y204) HTRF assay kit. Test compounds were added to the 384-well plate from a top concentration of 10 μM with 11 points, half log titration in duplicates. A375 cells were added into 384-well plates at a cell density of 8000 cells per well, respectively. The plates were kept at 37° C. with 5% CO2 for 24 hours. Cells treated in the absence of the test compound were the negative control. Positive control was set by wells containing all reagents but no cells. FRET signal was acquired on EnVision™ Multilabel Reader (PerkinElmer, Santa Clara, CA, USA).

BRAF V600E = BRAF V600E (Homo sapiens, UniProt P15056, V600E); assay: Western blot of BRAF V600E levels in A375 cells; format: cell-based; set-up: host or cells: A375
Sequence of BRAF V600E (P15056 whole entry V600E): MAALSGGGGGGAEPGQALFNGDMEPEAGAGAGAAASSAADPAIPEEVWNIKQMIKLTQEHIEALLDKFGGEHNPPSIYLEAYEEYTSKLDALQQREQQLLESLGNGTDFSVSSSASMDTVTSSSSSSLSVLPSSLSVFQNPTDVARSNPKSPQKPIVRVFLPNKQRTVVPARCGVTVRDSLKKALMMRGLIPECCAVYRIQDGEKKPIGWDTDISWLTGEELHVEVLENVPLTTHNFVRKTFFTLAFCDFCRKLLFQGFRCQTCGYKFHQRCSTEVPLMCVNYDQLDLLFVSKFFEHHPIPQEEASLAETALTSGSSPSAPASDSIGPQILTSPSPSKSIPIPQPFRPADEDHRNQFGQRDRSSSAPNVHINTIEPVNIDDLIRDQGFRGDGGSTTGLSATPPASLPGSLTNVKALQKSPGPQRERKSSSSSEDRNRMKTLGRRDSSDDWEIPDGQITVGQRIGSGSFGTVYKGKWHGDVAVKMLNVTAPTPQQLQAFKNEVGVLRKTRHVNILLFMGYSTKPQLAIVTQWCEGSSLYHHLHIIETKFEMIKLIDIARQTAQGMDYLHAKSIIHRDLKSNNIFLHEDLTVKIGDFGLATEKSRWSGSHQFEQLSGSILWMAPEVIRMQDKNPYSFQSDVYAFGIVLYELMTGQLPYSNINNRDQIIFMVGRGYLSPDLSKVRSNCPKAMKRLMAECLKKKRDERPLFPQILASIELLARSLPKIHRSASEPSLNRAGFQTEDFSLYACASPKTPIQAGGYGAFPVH

ERK phosphorylation [3] = assay: ERK phosphorylation (pERK) in A375 cells; format: cell-based
[4] = test system: A375 cells expressing the oncogenic NRAS^Q61K mutation; assay: Cellular growth over time of A375 cells expressing NRAS^Q61K; format: cell-based
[5] = molecular target: BRAF V600E, test compound and CRBN ternary complex (Homo sapiens, UniProt P15056+Q96SW2, V600E); assay: AlphaLISA ternary complex formation assay; format: binding; details: GST-BRAF V600E 16 nM, His-CRBN 64 nM
Sequence of BRAF V600E, test compound and CRBN ternary complex (P15056 whole entry V600E): as above
Sequence of BRAF V600E, test compound and CRBN ternary complex (Q96SW2 whole entry): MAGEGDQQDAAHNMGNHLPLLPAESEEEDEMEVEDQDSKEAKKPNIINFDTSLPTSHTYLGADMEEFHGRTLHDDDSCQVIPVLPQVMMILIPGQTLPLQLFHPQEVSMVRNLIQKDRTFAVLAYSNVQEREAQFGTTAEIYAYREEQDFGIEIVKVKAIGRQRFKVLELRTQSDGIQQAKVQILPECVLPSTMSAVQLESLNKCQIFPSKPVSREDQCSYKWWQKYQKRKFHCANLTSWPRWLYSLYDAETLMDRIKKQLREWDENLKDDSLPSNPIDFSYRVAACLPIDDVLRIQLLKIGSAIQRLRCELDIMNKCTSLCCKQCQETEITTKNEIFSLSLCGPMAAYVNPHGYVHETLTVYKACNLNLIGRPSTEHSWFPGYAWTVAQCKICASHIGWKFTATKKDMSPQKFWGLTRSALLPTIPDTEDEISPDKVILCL
Procedure: Formation of the ternary complex between BRAF V600E, test compound and CRBN was quantified using AlphaLISA® assay. GST-tagged BRAF V600E and His-tagged CRBN were labeled with a donor/acceptor AlphaLISA® pair, and complex formation was monitored via a change in the Alpha-signal. Signal from the control wells was used as a normalization control.
Characterization of the ternary complex formation between GST-BRAF V600E, Compound 157 and his-CRBN was carried out using an AlphaLISA® assay. Compounds were dispensed from serially diluted DMSO stock in low dead volume plates into gray 384-well AlphaPlates using acoustic technology to 1% of total reaction volume. Compounds were arranged vertically in rows A through P. Concentration series were horizontal: columns 1-11, and then duplicates in columns 12-22.
Excitation of the donor beads results in generation of singlet oxygen molecules. […]
A 10 μL mixture containing 16 nM of BRAF V600E and 64 nM of CRBN in 50 mM HEPES (pH 7.4), 200 mM NaCl, 1 mM TCEP, 0.05% Pluronic Acid, 0.1% BSA was added to the wells containing test compounds (columns 1-22) and the negative control wells (column 23). […] Plates were then read on an Envision plate reader with an appropriate AlphaLISA® filter set.

A375 cells [6] = assay: CellTiter-Glo cell growth inhibition, A375 cells; format: cell-based; details: Homo sapiens, A-375, 72 hr, mean of at least n = 3
Procedure: (§3) A375 cell viability was determined based on quantification of ATP using CellTiter-Glo® 2.0 luminescent Assay kit, which signals the presence of metabolically-active cells. Briefly, test compound was added to 384-well plates at a top concentration of 10 μM with 14 points, half log titration in duplicates. A375 cells were seeded into the 384-well plates in DMEM medium containing 10% FBS at a cell density of 250 cells per well. Cells treated in the absence of the test compound were the negative control, normalized to 100% viability, and cells treated in the absence of CellTiter-Glo® 2.0 were the positive control, normalized to 0% viability. A375 cells were incubated at 37° C. with 5% CO2 for 72 hr. CellTiter-Glo reagent was then added to the cells and Luminescence was acquired on EnVision™ Multilabel Reader (PerkinElmer, Santa Clara, CA, USA).

[7] = test system: H1666 cells endogenously expressing the class III BRAF mutation G466V; assay: Cellular growth over time in H1666 cells; format: cell-based; details: G466V
phospho-ERK (T202/Y204) [8] = assay: HTRF phospho-ERK (T202/Y204) assay in A375-NRAS^Q61K cells; format: cell-based; details: 24 hrs, mean of at least n = 3, read-out: pERK IC50
Excerpt: as §1, with “A375-NRAS^Q61K cells” for “A375”, “V600E mutation and NRAS homozygous Q61K” for “V600E”
as §2, with “A375-NRAS^Q61K” for “A375”, “2000” for “8000”, “well.” for “well, respectively.”

A375-NRAS^Q61K cells = assay: CellTiter-Glo growth inhibition assay, A375-NRAS^Q61K cells; format: cell-based; details: 96 hr, mean of at least n = 3
Procedure: A375-NRAS^Q61K cells (harboring BRAF homozygous V600E mutation and NRAS homozygous Q61K mutation) were purchased from ATCC. DMEM Medium (without phenol red and supplemented with L-glutamine) was purchased from Corning (Corning, NY, USA). CellTiter-Glo® 2.0 Assay was purchased from Promega (Madison, WI, USA). Cell culture flasks and 384-well microplates were acquired from VWR (Radnor, PA, USA) or Corning (Corning, NY, USA).
as §3, with “A375-NRAS^Q61K cell viability” for “A375 cell viability”, “in duplicates. A375-NRAS^Q61K cells were” for “in duplicates. A375 cells were”, “CO2 for 96 hr. CellTiter-Glo” for “CO2 for 72 hr. CellTiter-Glo”

LOXL4 = assay: Global proteomics profiling, A375 cells; format: cell-based, human; details: 300 nM, 24 hours
Procedure: Each cell line was treated in duplicate with either DMSO or Compound 157 (final concentration 300 nM) for 24 hours in an incubator at 37° C. with 5% CO2. After the 24-hour incubation, cells were harvested, washed twice with PBS, and snap frozen in liquid nitrogen. Samples were re-suspended in lysis buffer [8 M urea, 50 mM HEPES (pH 8.5), 50 mM NaCl, 1× protease inhibitor cocktail] and lysed by sonication at 4° C. with 85% amplitude in a pulse setting with 30 seconds on and 30 seconds off for a total sonication time of 5 minutes. Lysates were centrifuged at maximum speed for 10 minutes at 4° C. and the supernatant collected, reduced for 1 hour at room temperature with 5 mM TCEP, and the cysteine residues were then alkylated with 15 mM iodoacetamide (room temperature, in dark, 30 minutes). Protein content was extracted by methanol-chloroform precipitation and subsequent ice-cold acetone washes. Protein pellets were resuspended in 8 M urea, 50 mM HEPES (pH 8.5) buffer and protein concentrations were measured by BCA assay. […]
For peptide tandem mass tag (TMT) labeling, 100 μg of peptides per sample was prepared at […] concentration in 200 mM HEPES (pH 8.5), 30% acetonitrile (ACN) and each the specific TMT reagent. […] TMT reporter ion intensities were quantified by extracting the signal-to-noise ratio for each. […]

ERK phosphorylation [9] = assay: Western blot of ERK phosphorylation in A375 cells expressing NRAS^Q61K; format: cell-based; details: 24 hours
[10] = test system: A375 NRAS^Q61K mutant melanoma cell line xenograft; assay: In vivo efficacy in A375 NRAS^Q61K mutant melanoma xenograft; set-up: species or system BALBc/Nude mice; details: oral gavage, with MEKi trametinib 0.1 mg/kg BID

IC50 (phospho-ERK (T202/Y204) [2]) [nM] | BRAF V600E levels (BRAF V600E) | Ternary complex formation (concentration dependence) [5] | GI50 (A375 cells [6]) [nM] | IC50 (phospho-ERK (T202/Y204) [8]) [nM] | GI50 (A375-NRAS^Q61K cells) [nM] | SMILES | cellular confluence (A375 cells [1]) | ERK phosphorylation by western blot (ERK phosphorylation [3]) | cell growth inhibition [4] | cell growth inhibition [7] | LOXL4 protein level change (LOXL4) | ERK phosphorylation, in combination with trametinib (ERK phosphorylation [9]; with 1 nM trametinib) | ERK phosphorylation, alone (ERK phosphorylation [9]; without trametinib) | tumor response, in combination with trametinib [10]
13.5 | remain unchanged | no complex formation was observed | 22.5 | 36.8 | 794 | CCN(C)S(=O)(=O)Nc1ccc(F)c(Oc2ccc3ncn([C@H]4COC5(CCN(C(=O)CC6(O)CCN(c7cc8c(cc7F)c(N7CCC(=O)N(C)C7=O)nn8C)CC6)CC5)C4)c(=O)c3c2)c1C#N [Compound 157^NMe, reference compound] | approximately 70% | not as pronounced | not inhibited | not inhibited as significantly | – | – | – | –
– | – | – | – | – | – | CC(C)(C)c1nc(-c2cccc(NS(=O)(=O)c3c(F)cccc3F)c2F)c(-c2ccnc(N)n2)s1 [dabrafenib, reference compound] | – | – | – | – | decreased on the dabrafenib treated samples, to a lesser extent | – | – | –
2.1 | – | – | 8 | 31 | 911 | COC(=O)N[C@@H](C)CNc1nccc(-c2cn(C(C)C)nc2-c2cc(Cl)cc(NS(C)(=O)=O)c2F)n1 [encorafenib, reference compound] | – | – | does not inhibit cell growth | no activity; also recorded: does not inhibit cell growth | – | unable to significantly suppress | unable to significantly suppress | no activity
